The source of these data is patent EP1131073B1, “USE OF STAUROSPORINE DERIVATIVES FOR TREATING OCULAR NEOVASCULAR DISEASES” (Novartis AG, priority 1998, dated 2000).

Series [1] relates to retinal neovascularization. Nature of the series: Oxygen-induced ischemic retinopathy in mice, lectin-stained retinal sections with image analysis. It counts as in vivo, C57/BL6J mice. The note with it: for clumps of neovascularization on the surface of the retina: compared to vehicle-treated control mice. As to the method: Ischemic retinopathy is produced in C57/BL6J mice by a method described by Smith et al., Oxygen-induced Retinopathy in the Mouse, Invest. Ophthalmol. Vis. Sci. 35, 101-111 (1994). Seven-day-old mice and their mothers are placed in an airtight incubator and exposed to an atmosphere of 75 ± 3% oxygen for 5 days. Incubator temperature is maintained at 23 ± 2°C, and oxygen is measured every 8 hours with an oxygen analyzer. After 5 days, the mice are removed from the incubator, placed in room air, and subjected to a drug treatment. […] Vehicle (1% DMSO) or vehicle containing various concentrations of the drug (volume = 10 µl per gram body weight) is placed in the stomach by gavage.
(§1) After 5 days of treatment, the mice are sacrificed, eyes are rapidly removed and frozen in optimum cutting temperature embedding compound (OCT; Miles Diagnostics, Elkhart, IN) or fixed in 10% phosphate-buffered formalin and embedded in paraffin. Adult C57BL6J mice are also treated by gavage with the drug or vehicle and after 5 days, they are sacrificed and their eyes are processed for frozen or paraffin sections.
Slides are incubated in methanol/H2O2 for 10 minutes at 4°C, washed with 0.05 M Tris-buffered saline, pH 7.6 (TBS), and incubated for 30 minutes in 10% normal porcine serum. Slides are incubated 2 hours at room temperature with biotinylated lectin and after rinsing with 0.05M TBS, they are incubated with avidin coupled to peroxidase (Vector Laboratories) for 45 minutes at room temperature. After being washed for 10 minutes with 0.05 M TBS, slides are incubated with diaminobenzidine to give a brown reaction product. Some slides are counterstained with hematoxyln and all were mounted with Cytoseal.
To perform quantitative assessments, 10 µm serial sections are cut through half of each eye and sections roughly 50-60 µm apart are stained with lectin, providing 13 sections per eye for analysis. Lectin-stained sections are examined with an Axioskop microscope (Zeiss, Thornwood, NY) and images are digitized using a 3 CCD color video camera (IK-TU40A, Toshiba, Tokyo, Japan) and a frame grabber. Image-Pro Plus software (Media Cybernetics, Silver Spring, MD) is used to delineate lectin-stained cells on the surface of the retina and their area is measured. The mean of the 13 measurements from each eye is used as a single experimental value.

In series [2] the test system is endothelial cells of mature vessels. Nature of the series: Effect on mature retinal vessels of adult mice, endothelial staining with image analysis. The series is classed as in vivo, Adult C57BL6J mice. The note with it: 600 mg/kg by gavage once a day for 5 days. As to the method: as §1
Series [3] has as its system retinal vascular development. Description: Retinal vascular development in neonatal mice, fluorescein-dextran perfused retinal flat mounts. The series is classed as in vivo, newborn C57/BL6J mice. The note with it: 100 mg/kg daily subcutaneous. As to the method: Litters of newborn C57/BL6J mice (neonatal mice) are divided into treatment and control groups which received daily subcutaneous injections of 100 mg/kg of the drug or vehicle, respectively. At 7 or 10 days of age, the mice are anesthetized with ether, and perfused with 1 ml of phosphate-buffered saline containing 50 mg/ml of fluorescein-labeled dextran (2x10^6 average mw, Sigma, St. Louis, MO) as described by Tobe et al., Evolution of Neovascularization in Mice with Overexpression of VEGF in Photoreceptors, Invest. Ophthalmol. Vis. Sci. 39, 180-188 (1998). The eyes are removed and fixed for 1 hour in 10% phosphate-buffered formalin. The cornea and lens are removed and the entire retina is carefully dissected from the eyecup. Radially cuts are made from the edge of the retina to the equator in all 4 quadrants, and the retina is flat-mounted in Aquamount with photoreceptors facing upward. The flat mounts are examined by fluorescence microscopy, and the images are digitized using a 3 CCD color video camera and a frame grabber. Image-Pro™ Plus is used to measure the distance from the center of the optic nerve to the leading front of developing retinal vessels in each quadrant and the mean is used as a single experimental value.

The subject of series [4] is choroidal neovascularization. Description: Laser-induced rupture of Bruch's membrane, choroidal neovascularization in mice. The series is classed as in vivo, C57BL/6J mice. The note with it: 400 mg/kg/day orally by gavage. As to the method:
C57BL/6J mice are treated in accordance with the Association for Research in Vision and Ophthalmology resolution for the treatment of animals. […] J Path, in press. Briefly, 4 to 5 week old male C57BL/6J mice are anesthetized with ketamine hydrochloride (100 mg/kg body weight) and the pupils are dilated with 1% tropicamide. Three bums of krypton laser photocoagulation (100 µm spot size, 0.1 seconds duration, 150 mW) are delivered to each retina using the slit lamp delivery system of a Coherent Model 920 Photocoagulator and a hand held cover slide as a contact lens. Bums are performed in the 9, 12, and 3 o'clock positions of the posterior pole of the retina. Production of a bubble at the time of laser, which indicates rupture of Bruch's membrane, is an important factor in obtaining CNV, so only mice in which a bubble is produced for all three bums are included. […] After 14 days, the mice are killed with an overdose of pentobarbital sodium, and their eyes are rapidly removed and frozen in optimal cutting temperature embedding compound (OCT). Frozen serial sections (10 µm) are cut through the entire extent of each burn and histochemically stained with biotinylated griffonia simplicifolia lectin B4 (Vector Laboratories, Burlingame, CA), which selectively binds to endothelial cells. Slides are incubated in methanol/H2O2 for 30 minutes at 4°C, washed with 0.05 M Tris-buffered saline, pH 7.4 (TBS), and incubated for 30 minutes in 10% normal swine serum. Slides are rinsed with 0.05M TBS and incubated 2 hours at 37°C with biotinylated lectin. After being rinsed with 0.05M TBS, slides are incubated with Streptavidin-phosphatase (Kirkegaard and Perry Laboratories, Cabin John, MD) for 30 minutes at room temperature. […]
To perform quantitative assessments, lectin-stained sections are examined with an Axioskop microscope (Zeiss, Thornwood, NY) and images are digitized using a 3 CCD color video camera (IK-TU40A, Toshiba, Tokyo, Japan) and a frame grabber. […]

The mark [5] stands for this setting: 300 mg/kg twice a day by gavage.

`CO[C@@H]1[C@H](N(C)C(=O)c2ccccc2)C[C@H]2O[C@]1(C)n1c3ccccc3c3c4c(c5c6ccccc6n2c5c31)C(=O)NC4` [NBS, N-benzoyl-staurosporine]: the “endothelial cell staining on and in the retinas (image analysis)” value is recorded as “significantly less” in series [1] (60 mg/kg once a day, compared to vehicle-treated mice) and “significantly less” in series [1] (600 mg/kg once a day, compared to vehicle-treated mice). Moreover, the “endothelial staining within the retina” value in series [1] (60 mg/kg twice a day by gavage) and in series [1] (setting [5]) was “some decrease” each time. The “clumps of neovascularization on the surface of the retina” value in series [1] (60 mg/kg twice a day by gavage) and in series [1] (setting [5]) was “less than clumps in the retina of the vehicle-treated control mice” in each case. The “endothelial cell staining in the inner nuclear layer and outer plexiform layer” value in series [1] (600 mg/kg once a day for 5 days) is on record as “striking absence”. The “endothelial cell staining on the surface and within the retina” value in series [1] (600 mg/kg once a day for 5 days by gavage, compared to vehicle-treated mice) is recorded as “dramatic decrease”. The “endothelial cell staining within the retina” value in series [1] (600 mg/kg once a day for 5 days, compared to nonischemic mice) is recorded as “less than that of the nonischemic mice”. Also, the “toxicity to endothelial cells of mature vessels” value in series [2] is “not toxic”. For the same compound, the “total area of endothelial staining in the retina or the appearance of retinal vessels” value in series [2] (compared to vehicle-treated mice) was “no difference”. Also, the “extension of retinal vessels” value in series [3] (at 7 days of age) is recorded as “only extend slightly more than halfway to the periphery”. Also, the “extension of superficial capillary bed” value in series [3] (at 10 days of age) is listed as “has not yet reached the edge of the retina”. For the same compound, the “integrated area of lectin staining per lesion” value in series [4] (14 days, vehicle alone 0.0695621 ± 0.0073960 mm^2, p=0.004) was determined as 0.009018 ± 0.001754 mm^2. Further, the “appearance of overlying retinal vessels” value in series [4] (two weeks after laser) is “appear normal”. The “choroidal neovascularization at the site of each laser-induced rupture of Bruch's membrane” value in series [4] (two weeks after laser) is “very little if any”.
